# Assay results reported in EP4663632A1, “COMPOUNDS USEFUL FOR THE MODULATION OF THE ACTIVITY OF STING” (Sulis Therapeutics ApS, priority 2024, dated 2025).
# Entries after “also recorded” stand apart in the source; their conditions may differ.
# Assays:
# [1] = molecular target: C-terminal domain (CTD) of human STING (Homo sapiens, UniProt Q86WV6); assay: STING binding FP assay II; design: recombinant human STING protein (155-379); conditions: 7 nM STING
# STING [2] = molecular target: T1, STING (Homo sapiens, UniProt Q86WV6); assay: Western Blot analysis for STING degradation in H596 cells; assay type: cell-based; conditions: 24h; for STING degradation (Western Blot, Figure 1): H596 cells, 0.22 µM, 0.67 µM, 2 µM and 6 µM
# T1 sequence (Q86WV6 whole entry): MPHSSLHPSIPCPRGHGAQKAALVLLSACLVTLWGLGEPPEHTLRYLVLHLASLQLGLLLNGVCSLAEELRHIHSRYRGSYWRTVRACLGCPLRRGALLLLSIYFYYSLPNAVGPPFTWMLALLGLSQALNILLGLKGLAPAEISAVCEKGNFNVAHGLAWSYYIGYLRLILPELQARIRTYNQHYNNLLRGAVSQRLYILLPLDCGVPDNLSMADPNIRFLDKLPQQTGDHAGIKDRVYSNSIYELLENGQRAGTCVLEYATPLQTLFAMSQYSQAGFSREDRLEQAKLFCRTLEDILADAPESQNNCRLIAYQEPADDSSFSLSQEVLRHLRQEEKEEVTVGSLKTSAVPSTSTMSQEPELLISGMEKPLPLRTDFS
# Protocol: For cell lysing for Western Blot analysis cell culture plates were brought to ice, supernatant was removed by aspiration and cells washed 2x in ice-cold DPBS. Cells were lysed in 65 µL of RIPA buffer supplemented with cOmplete ULTRA Tablets protease inhibitor cocktail, PIERCE Phosphatase inhibitor mini tablet, Benzonase and 10mM NaF for 20 min on ice. Lysates were collected, cleared by centrifugation (13000xg for 10 min at 4°C). Samples were either analysed directly or stored at -80°C until analysis.
# For Western Blotting, total protein concentration in each lysate was determined using PIERCE Gold BCA Assay kit according to manufactures protocol. 6 µg of total protein was mixed with 2x Laemmli buffer containing DTT, boiled for 5 min at 95°C, cooled on ice and loaded into each well of a 4-20% Criterion TGX gel. Proteins were separated by electrophoresis, by running for 1h at 150V. After separation proteins were blotted onto a PVDF membrane by semi-dry transfer using Trans-Blot turbo system at pre-defined BioRad MIDI protocol; 25V, 1A (fixed) for 30 min. Membranes were blocked for 1h in 5% skim milk in TBS-T20 on a rocker at room temperature followed by washing and exposure to primary antibodies against human STING 1:1000 (Cell Signalling, #13647) or loading controls Vinculin 1:1000 (Cell Signalling, #13901) or beta-Actin 1:10000 (Sigma, A5441) all diluted in 5% BSA in TBS-T20. Membranes were probed over night at 4°C on a rocker. Membranes were washed 3x in TBS-T20 followed by exposure to secondary HRP-conjugated anti-rabbit antibody or HRP-conjugated anti-mouse antibody diluted 1:10000 in 5% skim milk in TBS-T20 as appropriate. Membranes were incubated for 1h at room temperature on a rocker, then washed 3x in TBS-T20.
# For generating DC50 values, the intensity of individual bands was measured using imaged and expression levels were calculated as a ratio of STING intensities vs. Reference protein intensities and normalized to DMSO control. The normalized ratios were plotted on a XY curve in GraphPad Prism where DC50 was estimated using a 4-parameter non-linear regression fitting curve.
# (§1) To assess STING degradation in H596 cells (ATCC, HTB-178) cells were seeded at a density of 100.000 cells/well in 24-well Nunclon Delta surface treated culture plate in RPMI-1640 growth medium (supplemented with 10% FBS, 1% Pen-strep). Cells were incubated over-night at 37°C 5% CO2 to allow adhesion. Next day growth medium was renewed and a 5x concentration of test compounds (2.5% DMSO) diluted in growth medium were added to the appropriate well. Final DMSO concentration was 0.5%. Cell culture plates were returned to the incubator for additional 24h. Final test compound concentrations were 0.22 µM, 0.67 µM, 2 µM and 6 µM.
# (§2) For cell lysis, western blotting and data analysis, the methods described above for HFF-1 cells were applied.
# STING [3] = molecular target: T1, STING; assay: Western Blot analysis for STING degradation in HaCat cells; assay type: cell-based; design: host or cells: HFF-1 human foreskin fibroblasts; conditions: 0.22 µM, 0.67 µM, 2 µM and 6 µM
# Protocol: as §1, §2
# Similar protocols were carried out to assess STING degradation in H1650 cells (Figure 1, top panel) and HaCat cells (Figure 1, bottom panel) using Example compounds 14, 16 and 24, except that the seeding density was 150,000 cells/well and 250,000 cells/well for H1650 cells and HaCat cells, respectively.
# STING [4] = molecular target: T1, STING; assay: Western Blot analysis for STING degradation (DC50) in HFF-1 cells; assay type: cell-based; design: host or cells: HFF-1 human foreskin fibroblasts; conditions: 24h; reference protein beta-actin
# Chain of C-terminal domain (CTD) of human STING (Q86WV6 155-379): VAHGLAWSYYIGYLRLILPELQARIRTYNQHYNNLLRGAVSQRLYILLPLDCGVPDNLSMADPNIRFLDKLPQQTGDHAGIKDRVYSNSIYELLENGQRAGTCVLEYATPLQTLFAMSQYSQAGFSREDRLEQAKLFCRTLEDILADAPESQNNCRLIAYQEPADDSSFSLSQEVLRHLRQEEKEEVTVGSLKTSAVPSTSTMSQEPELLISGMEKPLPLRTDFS
IC50 [1],DC50 (STING [2]; reference protein beta-actin),DC50 (STING [4]),SMILES,"STING degradation (Western Blot, Figure 1) (STING [2])","STING degradation (Western Blot, Figure 1) (STING [3])"
5.7 nM,1000 to 5000 nM,–,CCn1nc(C)cc1C(=O)N=c1n(C)c2cc(C(N)=O)ccc2n1CCC(CCn1c(=NC(=O)c2cc(C)nn2CC)n(C)c2cc(C(N)=O)ccc21)OCC(=O)NCCOCCOCCOCCOCCC(=O)NCCOCCOCCOCCOCC(=O)N[C@H](C(=O)N1C[C@H](O)C[C@H]1C(=O)NCc1ccc(-c2scnc2C)cc1)C(C)(C)C (stereo partly shown) [Example 14],inducing visible degradation in H1650 and H596 at the higher concentrations tested,–
4.5 nM,–,< 200 nM,CCn1nc(C)cc1C(=O)N=c1n(C)c2cc(C(N)=O)ccc2n1CCC(CCn1c(=NC(=O)c2cc(C)nn2CC)n(C)c2cc(C(N)=O)ccc21)OCC(=O)NCCOCCOCCOCCOCCC(=O)NCCOCCOCCOCCOCCNc1cccc2c1C(=O)N(C1CCC(=O)NC1=O)C2=O (stereo not shown) [Example 16],induced STING degradation in all cell lines tested at all concentrations tested; also recorded: showed a more potent effect of induction of STING degradation than Example compound 14,induced STING degradation in all cell lines tested at all concentrations tested
